pIC50: −log10 of the molar value.
Test system: Human primary T cells
Assay: IL-2 ELISA, Human Primary T Cell, Anti-CD3+CD28+ (Example 3)
Type: cell-based
Conditions: anti-CD3+CD28 stimulation
Method in brief: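 Human primary T cells, 100,000 per well, were pre-incubated with compound in Yssel's medium for 1 h at 37 °C. The counter-assay used 0.5 ng/ml PMA with 0.1 uM ionomycin final.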

| pIC50 (24 hours) | SMILES | also measured |
| --- | --- | --- |
| 7.03 | COc1cc(Nc2ncc(C(F)(F)F)c(NC3CC(C)(C)N(C)C(C)(C)C3)n2)cc(-n2nnnc2C)c1 [Compound I-370] |  |
| 6.26 | COc1cc(Nc2ncc(F)c(NC3CC(C)(C)NC(C)(C)C3)n2)cc(OC)c1 [Compound I-371] |  |
| 7.04 | COc1cc(Nc2ncc(F)c(NC3CC(C)(C)NC(C)(C)C3)n2)cc(-n2nnnc2C)c1 [Compound I-372] |  |
| 6.27 | CN1C(C)(C)CC(Nc2nc(Nc3ccc(OCCN4CCOCC4)c(Cl)c3)ncc2C#N)CC1(C)C [Compound I-373] |  |
| 4.46 | COc1cc(C)c(Nc2ncc(F)c(NC3CC(C)(C)NC(C)(C)C3)n2)cc1OC [Compound I-379] |  |
| 4.71 | COc1cc(C)c(Nc2ncc(F)c(NC3CC(C)(C)N(C)C(C)(C)C3)n2)cc1OC [Compound I-380] |  |
| 4.52 | CC1(C)CC(Nc2nc(Nc3cc(O)cc(O)c3)ncc2F)CC(C)(C)N1 [Compound I-383] |  |
| 5.02 | CN1C(C)(C)CC(Nc2nc(Nc3cc(O)cc(O)c3)ncc2F)CC1(C)C [Compound I-384] |  |
| 5.93 | COCCOc1cc(Nc2ncc(F)c(NC3CC(C)(C)N(C)C(C)(C)C3)n2)cc(OCCOC)c1 [Compound I-385] |  |
| 5.49 | COc1cc(Cl)c(Nc2ncc(F)c(NC3CC(C)(C)N(C)C(C)(C)C3)n2)cc1OC [Compound I-386] |  |
| 5.46 | COc1cc(Nc2ncc(C(N)=O)c(NC3CC(C)(C)NC(C)(C)C3)n2)cc(-n2nnnc2C)c1 [Compound I-387] |  |
| 6.96 | COc1cc(Nc2ncc(F)c(NC3CC(C)(C)NC(C)(C)C3)n2)cc(-n2cnnn2)c1 [Compound I-388] |  |
| 5.27 | COc1cc(Nc2ncc(C(N)=O)c(NC3CC(C)(C)NC(C)(C)C3)n2)cc(-n2cnnn2)c1 [Compound I-389] |  |
| 6.17 | COc1cc(Nc2ncc(C(N)=O)c(NC3CC(C)(C)N(C)C(C)(C)C3)n2)cc(-n2cnnn2)c1 [Compound I-390] |  |
| 6.66 | CC1(C)CC(Nc2nc(Nc3cccc(-n4cnnn4)c3)ncc2F)CC(C)(C)N1 [Compound I-391] |  |
| 5.35 | CC1(C)CC(Nc2nc(Nc3cccc(-n4cnnn4)c3)ncc2C(N)=O)CC(C)(C)N1 [Compound I-392] |  |
| 6.37 | CC1(C)CC(Nc2nc(Nc3cccc(-n4cnnn4)c3)ncc2C#N)CC(C)(C)N1 [Compound I-393] |  |
| 5.53 | COCCOc1cc(Nc2ncc(F)c(NC3CC(C)(C)NC(C)(C)C3)n2)cc(OCCOC)c1 [Compound I-394] |  |
| 7.00 | CCCc1nnnn1-c1cc(Nc2ncc(F)c(NC3CC(C)(C)N(C)C(C)(C)C3)n2)ccc1OC [Compound I-395] |  |
| 7.00 | Cc1nnnn1-c1cccc(Nc2ncc(F)c(NC3CC(C)(C)N(C)C(C)(C)C3)n2)c1 [Compound I-396] |  |
| 5.70 | Cc1cc(Nc2ncc(F)c(NC3CC(C)(C)N(C)C(C)(C)C3)n2)ccc1-n1cnnn1 [Compound I-397] |  |
| 7.30 | Cc1ccc(Nc2ncc(F)c(NC3CC(C)(C)N(C)C(C)(C)C3)n2)cc1-n1cnnn1 [Compound I-398] |  |
| 7.30 | CSc1nnnn1-c1cccc(Nc2ncc(F)c(NC3CC(C)(C)N(C)C(C)(C)C3)n2)c1 [Compound I-399] |  |
| 5.77 | CN1C(C)(C)CC(Nc2nc(Nc3ccc(-n4cnnn4)cc3)ncc2F)CC1(C)C [Compound I-400] |  |

| pIC50 (24 hours) | SMILES | also measured |
| --- | --- | --- |
| 5.50 | COc1ccc(Nc2ncc(F)c(NC3CC(C)(C)N(C)C(C)(C)C3)n2)cc1OCC(F)(F)F [Compound I-401] |  |
| 6.33 | COc1cc(Nc2ncc(C#N)c(NC3CC(C)(C)NC(C)(C)C3)n2)cc(-n2nnnc2C)c1 [Compound I-402] |  |
| 6.30 | COc1cc(Nc2ncc(C#N)c(NC3CC(C)(C)NC(C)(C)C3)n2)cc(-n2cnnn2)c1 [Compound I-403] |  |
| 6.77 | COc1cc(Nc2ncc(C#N)c(NC3CC(C)(C)N(C)C(C)(C)C3)n2)cc(-n2cnnn2)c1 [Compound I-404] |  |
| 6.62 | CN1C(C)(C)CC(Nc2nc(Nc3cccc(-n4cnnn4)c3)ncc2C#N)CC1(C)C [Compound I-405] |  |
| 6.32 | CN1C(C)(C)CC(Nc2nc(Nc3cc(OCC(F)(F)F)cc(OCC(F)(F)F)c3)ncc2C(N)=O)CC1(C)C [Compound I-406] |  |
| 5.57 | COc1cc(Nc2ncc(F)c(NC3CC(C)(C)N(C)C(C)(C)C3)n2)ccc1-n1nnnc1C [Compound I-407] |  |
| 5.98 | CC1(C)CC(Nc2nc(Nc3cc(OCC(F)(F)F)cc(OCC(F)(F)F)c3)ncc2C(N)=O)CC(C)(C)N1 [Compound I-408] |  |
| 7.30 | CCOc1ccc(Nc2ncc(F)c(NC3CC(C)(C)N(C)C(C)(C)C3)n2)cc1-n1nnnc1CC [Compound I-409] |  |
| 5.84 | CN1C(C)(C)CC(Nc2nc(Nc3ccc(C(F)(F)F)c(C(F)(F)F)c3)ncc2F)CC1(C)C [Compound I-410] |  |
| 6.55 | CN1C(C)(C)CC(Nc2nc(Nc3cc(OCC(F)(F)F)cc(OCC(F)(F)F)c3)ncc2C#N)CC1(C)C [Compound I-411] |  |
| 5.18 | COc1ccc(Nc2ncc(F)c(NC3CC(C)(C)N(C)C(C)(C)C3)n2)cc1OCC(=O)NC1CC1 [Compound I-412] |  |
| 5.21 | COCCOc1cc(Nc2ncc(F)c(NC3CC(C)(C)N(C)C(C)(C)C3)n2)ccc1OC [Compound I-413] |  |
| 6.80 | Cc1nnnn1-c1cccc(Nc2ncc(F)c(NC3CC(C)(C)NC(C)(C)C3)n2)c1 [Compound I-414] |  |
| 5.57 | COc1ccc(Nc2ncc(F)c(NC3CC(C)(C)N(C)C(C)(C)C3)n2)cc1OCc1ccncc1 [Compound I-417] |  |
| 5.66 | COc1ccc(Nc2ncc(F)c(NC3CC(C)(C)N(C)C(C)(C)C3)n2)cc1OCc1cccnc1 [Compound I-418] |  |
| 6.57 | CC1(C)CC(Nc2nc(Nc3cc(OCC(F)(F)F)cc(OCC(F)(F)F)c3)ncc2C#N)CC(C)(C)N1 [Compound I-419] |  |
| 5.33 | COc1ccc(Nc2ncc(F)c(NC3CC(C)(C)N(C)C(C)(C)C3)n2)cc1OCCN(C)C [Compound I-421] |  |
|  | COc1cc(Nc2ncc(OC)c(NC3CC(C)(C)N(C)C(C)(C)C3)n2)cc(OC)c1 [Compound I-423] | pIC50 (Homo sapiens, T-cell, 24 h): 5.46 |
|  | COc1cc(Nc2ncc(OC)c(NC3CC(C)(C)N(C)C(C)(C)C3)n2)cc(-n2nnnc2C)c1 [Compound I-424] | pIC50 (Homo sapiens, T-cell, 24 h): 6.00 |
|  | COc1cc(Nc2ncc(C)c(NC3CC(C)(C)N(C)C(C)(C)C3)n2)cc(OC)c1 [Compound I-425] | pIC50 (Homo sapiens, T-cell, 24 h): 5.94 |
|  | CN(C)c1ccc(-c2ccc(Nc3ncc(F)c(NC4CC(C)(C)N(C)C(C)(C)C4)n3)cc2C#N)cn1 [Compound I-426] | pIC50 (Homo sapiens, T-cell, 24 h): 6.38 |
|  | CN1C(C)(C)CC(Nc2nc(Nc3ccc(-c4ccc(N5CCOCC5)nc4)c(C#N)c3)ncc2F)CC1(C)C [Compound I-427] | pIC50 (Homo sapiens, T-cell, 24 h): 6.18 |
|  | CN(C)c1ccc(-c2ccc(Nc3ncc(F)c(NC4CC(C)(C)NC(C)(C)C4)n3)cc2C#N)cn1 [Compound I-428] | pIC50 (Homo sapiens, T-cell, 24 h): 6.25 |

| pIC50 (24 hours) | SMILES | also measured |
| --- | --- | --- |
|  | CC1(C)CC(Nc2nc(Nc3ccc(-c4ccc(N5CCOCC5)nc4)c(C#N)c3)ncc2F)CC(C)(C)N1 [Compound I-429] | pIC50 (Homo sapiens, T-cell, 24 h): 6.11 |
|  | COc1cc(Nc2ncc(C#C[Si](C)(C)C)c(NC3CC(C)(C)N(C)C(C)(C)C3)n2)cc(OC)c1 [Compound I-430] | pIC50 (T-cell, 24 hours): 5.35 |
|  | COc1cc(Nc2ncc(F)c(NC3CC(C)(C)N(C)C(C)(C)C3)n2)cc(OCCN2CCOCC2)c1 [Compound I-431] | pIC50 (Homo sapiens, T-cell, 24 h): 6.35 |
|  | COc1cc(Nc2ncc(F)c(NC3CC(C)(C)NC(C)(C)C3)n2)cc(OCCN2CCOCC2)c1 [Compound I-432] | pIC50 (Homo sapiens, T-cell, 24 h): 5.82 |
|  | C#Cc1cnc(Nc2cc(OC)cc(OC)c2)nc1NC1CC(C)(C)N(C)C(C)(C)C1 [Compound I-433] | pIC50 (Homo sapiens, T-cell, 24 h): 5.63 |
|  | COc1cc(Nc2ncc(F)c(NC3CC(C)(C)N(C)C(C)(C)C3)n2)cc(OCCN2CCCC2)c1 [Compound I-434] | pIC50 (Homo sapiens, T-cell, 24 h): 6.57 |
|  | COc1cc(Nc2ncc(F)c(NC3CC(C)(C)NC(C)(C)C3)n2)cc(OCCN2CCCC2)c1 [Compound I-435] | pIC50 (Homo sapiens, T-cell, 24 h): 6.26 |
|  | COc1cc(O)cc(Nc2ncc(F)c(NC3CC(C)(C)N(C)C(C)(C)C3)n2)c1 [Compound I-436] | pIC50 (Homo sapiens, T-cell, 24 h): 6.22 |
|  | COc1cc(Nc2ncc(F)c(NC3CC(C)(C)N(C)C(C)(C)C3)n2)cc(OCCn2cccc2)c1 [Compound I-437] | pIC50 (Homo sapiens, T-cell, 24 h): 6.77 |
|  | COc1cc(Nc2ncc(F)c(NC3CC(C)(C)NC(C)(C)C3)n2)cc(OCCn2cccc2)c1 [Compound I-438] | pIC50 (Homo sapiens, T-cell, 24 h): 6.52 |
|  | Cc1ccc(C)n1-c1cc(Nc2ncc(F)c(NC3CC(C)(C)N(C)C(C)(C)C3)n2)ccc1OCCN1CCOCC1 [Compound I-439] | pIC50 (Homo sapiens, T-cell, 24 h): 6.21 |
|  | Cc1ccc(C)n1-c1cc(Nc2ncc(F)c(NC3CC(C)(C)N(C)C(C)(C)C3)n2)ccc1OCCN1CCCC1 [Compound I-440] | pIC50 (Homo sapiens, T-cell, 24 h): 6.28 |
|  | Cc1ccc(C)n1-c1cc(Nc2ncc(F)c(NC3CC(C)(C)NC(C)(C)C3)n2)ccc1OCCN1CCOCC1 [Compound I-441] | pIC50 (Homo sapiens, T-cell, 24 h): 5.77 |
|  | Cc1ccc(C)n1-c1cc(Nc2ncc(F)c(NC3CC(C)(C)NC(C)(C)C3)n2)ccc1OCCN1CCCC1 [Compound I-442] | pIC50 (Homo sapiens, T-cell, 24 h): 5.75 |
| 6.40 | COc1cc(F)cc(Nc2ncc(F)c(NC3CC(C)(C)N(C)C(C)(C)C3)n2)c1 [Compound I-443] |  |
| 6.04 | CC1(C)CC(Nc2nc(Nc3ccc(OCCN4CCOCC4)c(Cl)c3)ncc2C#N)CC(C)(C)N1 [Compound I-445] |  |
|  | COc1cc(O)cc(Nc2ncc(F)c(NC3CC(C)(C)NC(C)(C)C3)n2)c1 [Compound I-453] | pIC50 (Homo sapiens, T-cell, 24 h): 5.98 |
| 5.20 | Cc1nnnn1-c1ccc(Nc2ncc(F)c(NC3CC(C)(C)N(C)C(C)(C)C3)n2)cc1 [Compound I-454] |  |
| 5.78 | CSc1nnnn1-c1cccc(Nc2ncc(C(N)=O)c(NC3CC(C)(C)NC(C)(C)C3)n2)c1 [Compound I-457] |  |
| 6.10 | CN1C(C)(C)CC(Nc2nc(Nc3ccc(-n4nnnc4-c4ccco4)cc3)ncc2F)CC1(C)C [Compound I-458] |  |
| 6.57 | Cc1nnnn1-c1cccc(Nc2ncc(C#N)c(NC3CC(C)(C)N(C)C(C)(C)C3)n2)c1 [Compound I-462] |  |
| 6.74 | CSc1nnnn1-c1cccc(Nc2ncc(C#N)c(NC3CC(C)(C)N(C)C(C)(C)C3)n2)c1 [Compound I-464] |  |
| 6.62 | CN1C(C)(C)CC(Nc2nc(Nc3ccc(F)c(-n4cnnn4)c3)ncc2F)CC1(C)C [Compound I-466] |  |

| SMILES | pIC50 (24 hours) | also measured |
| --- | --- | --- |
| CC1(C)CC(Nc2nc(Nc3cc(Cl)cc(Cl)c3)ncc2F)CC(C)(C)N1CCN [Compound I-447] | 6.04 |  |

Reference: patent publication US8993585B2, “Cyclic amine substituted pyrimidinediamines as PKC inhibitors” (Rigel Pharmaceuticals, Inc., priority 2007, dated 2015)
